Experimental data as given in patent US12139498B1, “Positive allosteric modulators of the muscarinic acetylcholine receptor M4” (Vanderbilt University, priority 2023, dated 2024).

Tests used:
[1] = In vivo pharmacokinetics in rat
Procedure: Compound 70 was tested in several in vivo assays and the pharmacokinetic parameters listed in the following table may be determined from pharmacokinetic studies in rat, dog, or cynomolgus monkey, according to known methods as generally described in the following references: Garrison et al. J. Med. Chem. 2022, 65, 6273-6286; Felts et al. J. Med. Chem 2017, 60, 5072-5085; and Yu et al. J. Med. Chem. 2021, 64, 4709-4729.

[2] = target: T1, Human M4 (Homo sapiens, UniProt P08173); test: M4 cell-based functional assay (calcium mobilization); design: expressed in transfected cells
T1 sequence (P08173 1-479): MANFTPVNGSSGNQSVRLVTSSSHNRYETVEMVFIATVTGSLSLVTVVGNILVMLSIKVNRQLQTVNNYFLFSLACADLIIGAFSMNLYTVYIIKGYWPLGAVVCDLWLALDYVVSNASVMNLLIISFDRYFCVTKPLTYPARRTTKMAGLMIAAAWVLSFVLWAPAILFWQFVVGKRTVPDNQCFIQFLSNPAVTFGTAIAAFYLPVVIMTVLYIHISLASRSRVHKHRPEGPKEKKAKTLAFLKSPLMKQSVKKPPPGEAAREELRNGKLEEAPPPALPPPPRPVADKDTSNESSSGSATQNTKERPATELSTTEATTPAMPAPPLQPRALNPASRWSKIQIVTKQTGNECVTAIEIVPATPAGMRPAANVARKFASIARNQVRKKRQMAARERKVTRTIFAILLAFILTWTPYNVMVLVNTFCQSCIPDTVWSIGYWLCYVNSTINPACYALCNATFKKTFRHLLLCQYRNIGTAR
Outline: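 CHO-K1 cells stably co-expressing hM4 and chimeric Gqi5, loaded with Fluo-4-AM (1.15 μM final, 45 min, 37° C). Compound added ~140 s before EC20 then EC80 acetylcholine; calcium flux by kinetic fluorescence (ex 480/em 530 nm), expressed as fold over basal and normalized to maximal ACh response (1 mM).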

Compound: Cc1c(N2CCc3nc(C4(F)CC4)sc3C2)nc2nn(C)c(=O)n2c1C [Compound 70, 7-(2-(1-fluorocyclopropyl)-6,7-dihydrothiazolo[5,4-c]pyridin-5(4H)-yl)-2,5,6-trimethyl-[1,2,4]triazolo[4,3-a]pyrimidin-3(2H)-one]
- Kp ([1]; brain / plasma): 1.4
- Kp uu ([1]; brain / plasma, unbound): 0.3
- Rat oral F (3 mg/kg) ([1]; oral 3 mg/kg): >100%
- clearance ([1]; plasma, read-out: Rat CLp): 4.3 mL/min/kg
- half-life ([1]; plasma, read-out: Rat Elim. t1/2 (converted)): 3.1 h
- Vd ([1]; plasma, read-out: Rat Vss): 0.7 L/kg
- Emax at 30 µM ([2]; % ACh maximum at 30 μM): 77%
- EC50 ([2]; CHO-K1 hM4-Gqi5 cells, calcium flux, increase in EC20 acetylcholine response): 4 nM
